Test results from publication PMC11858854, “In Vitro and In Vivo Assessment of Pharmacokinetic Profile of Peramivir in the Context of Inhalation Therapy” (Pharmaceuticals, 2025).

Columns and labels:
[1] = oral; cited from earlier work
[2] = Tissue distribution study in rats; format: in vivo; conditions: rat
Experimental: Tissue distribution characteristics were studied following different deliveries of i.v. 3 mg/kg, i.t. 0.3 mg/kg, and i.t. 3 mg/kg in rats. The rats were euthanized at 5 min, 30 min, 1 h, 4 h, 12 h, and 24 h after administration. Blood was collected by puncture of the fundus venous plexus, and bronchoalveolar lavage was performed to obtain bronchoalveolar lavage (BAL) fluid samples, and then the main tissues were obtained by dissection. All the tissues were thoroughly rinsed in ice physiological saline, then weighed and stored at −40 °C for analysis.
Whole blood was placed in EP tubes containing sodium heparin, and plasma was extracted by centrifugation at 4 °C, 5000× g for 10 min. […] Drug concentrations in the samples were determined using the LC-MS/MS method and drug concentrations in the BAL were converted to drug concentrations in epithelial lining fluid (ELF) using the urea nitrogen correction method.
The apparent volume of ELF in BAL fluid was determined by the urea dilution method described by Rennard. The estimated concentration of drugs in ELF was calculated as follows:CELF = CBAL × (UPlasma/UBAL)(1) where CBAL is the measured drug concentration in BAL fluid and UPlasma and UBAL are the measured concentrations of urea nitrogen in plasma and BAL fluid, respectively.
The Kp of each tissue was calculated as follows:Kp = AUC(0–t, tissue)/AUC(0–t, plasma)(2)

[3] = Pharmacokinetics study in rats (i.v. and tracheal nebulization, plasma); format: in vivo, rat; conditions: for AUC(0–t) / AUC(0–t)/D / AUC(0–∞) / Cmax or C0 / Cmax/D / MRT(0–t) / MRT(0–∞) / T1/2 / Tmax / Cl / Vss / Vz: rat plasma, Mean ± SD, n = 6
Experimental: Pharmacokinetic studies were performed on rats to examine the effects of two distinct routes of administration: intravenous (i.v.) and tracheal nebulization (i.t.). The two administration routes were established to provide different doses, with six SD rats randomly assigned and weighed for each route.
The intravenous group consisted of rats that were randomly allocated into two subgroups, receiving dosages of 3 mg/kg and 6 mg/kg, respectively. The i.t. group consisted of rats that were randomly allocated into four groups receiving doses of 0.3 mg/kg, 1 mg/kg, 3 mg/kg, and 6 mg/kg. Prior to and at 0.033, 0.083, 0.25, 0.5, 1, 2, 4, 6, 8, 12, and 24 h post-administration, about 200 μL of blood was obtained via jugular vein catheterization and transferred to an EP tube containing heparin. Following centrifugation for 10 min at 5000× g, the plasma was isolated and preserved in a refrigerator at −40 °C until analysis.
Noncompartmental PK parameter estimates were determined from individual concentration-time data, using Phoenix WinNonlin, version 8.1 (Certara USA, Princeton, NJ, USA). And the linear relationship between AUC(0–t) and the corresponding dose was analyzed. t tests were performed on pharmacokinetic parameters under different dosing regimens to analyse the differences in drug exposure in rats.

[4] = system: NCI-H441/dTHP co-culture model; test: Bidirectional transport, NCI-H441/dTHP co-culture model; format: in vitro ADME, human; conditions: NCI-H441/dTHP, 2 μM
Experimental: THP-1 cells were cultured in RPMI-1640 medium (Gibco, Thermo, CA, USA) supplemented with 10% FBS, PS (100 U/mL), and β-Mer (0.05 mM) at 37 °C in a humidified 5% CO2 incubator, and the medium was changed every other day. THP-1 cells were seeded at 4 × 10^5 cells/mL in six-well plates and induced for 48 h by adding medium containing a final concentration of 100 ng/mL PMA.
Then, the differentiated cells were seeded at 5 × 10^4 cells/well on the surface of NCI-H441 cells 10 days after air–liquid culture and continued to co-culture for 24 h.
We removed the liquid from the apical and basolateral of the Transwell, rinsed the cells three times with a buffer containing HBSS, 10 mM Hepes, and 0.1% BSA (Buffer A), and then added Buffer A (100 µL for the apical side and 600 µL for the basolateral side) for pre-incubation for 30 min at 37 °C. For the transport studies in the apical to basolateral (A-B) direction, 100 μL of pre-warmed test solution (Buffer A containing 2 µM positive control drugs or peramivir) was added to the apical side, while 600 μL of pre-warmed assay buffer, a buffer containing HBSS, 10 mM Hepes, and 1% BSA (Buffer B), was added to the basolateral compartment.

CCC(CC)[C@H](NC(C)=O)[C@@H]1[C@H](O)[C@@H](C(=O)O)C[C@H]1N=C(N)N [Peramivir]
oral bioavailability [1]: 3%
exposure in alveolar epithelial lining fluid after inhalation relative to equivalent i.v. dose [2]: exceeding 370 times
tissue–plasma partition coefficient, Kp ([2]; intravenous, all tissues except renal and alveolar epithelial lining): < 1
AUC(0–t) ([3]; i.t. 0.3 mg/kg): 0.40517 ± 0.05659 µg·h/mL
AUC(0–t)/D ([3]; i.t. 0.3 mg/kg): 1350.57 ± 188.64 kg·ng·h/mL/mg
AUC(0–∞) ([3]; i.t. 0.3 mg/kg): 0.40771 ± 0.05659 µg·h/mL
Cmax or C0 ([3]; i.t. 0.3 mg/kg): 204.67 ± 80.82 ng/mL
Cmax/D ([3]; i.t. 0.3 mg/kg): 682.22 ± 269.38 kg·ng/mL/mg
MRT(0–t) ([3]; i.t. 0.3 mg/kg): 1.62 ± 0.31 h
MRT(0–∞) ([3]; i.t. 0.3 mg/kg): 1.67 ± 0.33 h
T1/2 ([3]; i.t. 0.3 mg/kg): 1.07 ± 0.22 h
Tmax ([3]; i.t. 0.3 mg/kg): 0.37 ± 0.38 h
AUC(0–t) ([3]; i.t. 1 mg/kg): 1.27925 ± 0.09359 µg·h/mL
AUC(0–t)/D ([3]; i.t. 1 mg/kg): 1279.25 ± 93.59 kg·ng·h/mL/mg
AUC(0–∞) ([3]; i.t. 1 mg/kg): 1.29103 ± 0.09289 µg·h/mL
Cmax or C0 ([3]; i.t. 1 mg/kg): 544.17 ± 215.23 ng/mL
Cmax/D ([3]; i.t. 1 mg/kg): 544.17 ± 215.23 kg·ng/mL/mg
MRT(0–t) ([3]; i.t. 1 mg/kg): 2.08 ± 0.69 h
MRT(0–∞) ([3]; i.t. 1 mg/kg): 2.32 ± 1.07 h
T1/2 ([3]; i.t. 1 mg/kg): 4.10 ± 1.69 h
Tmax ([3]; i.t. 1 mg/kg): 0.67 ± 0.40 h
AUC(0–t) ([3]; i.t. 3 mg/kg): 4.36435 ± 0.58302 µg·h/mL
AUC(0–t)/D ([3]; i.t. 3 mg/kg): 1454.78 ± 194.34 kg·ng·h/mL/mg
AUC(0–∞) ([3]; i.t. 3 mg/kg): 4.67322 ± 0.56778 µg·h/mL
Cmax or C0 ([3]; i.t. 3 mg/kg): 2303.33 ± 1523.96 ng/mL
Cmax/D ([3]; i.t. 3 mg/kg): 767.78 ± 507.99 kg·ng/mL/mg
MRT(0–t) ([3]; i.t. 3 mg/kg): 3.15 ± 0.66 h
MRT(0–∞) ([3]; i.t. 3 mg/kg): 8.26 ± 4.04 h
T1/2 ([3]; i.t. 3 mg/kg): 27.20 ± 9.67 h
Tmax ([3]; i.t. 3 mg/kg): 0.29 ± 0.36 h
AUC(0–t) ([3]; i.t. 6 mg/kg): 8.47933 ± 0.88387 µg·h/mL
AUC(0–t)/D ([3]; i.t. 6 mg/kg): 1413.22 ± 147.31 kg·ng·h/mL/mg
AUC(0–∞) ([3]; i.t. 6 mg/kg): 8.85222 ± 0.89797 µg·h/mL
Cmax or C0 ([3]; i.t. 6 mg/kg): 3866.00 ± 2454.21 ng/mL
Cmax/D ([3]; i.t. 6 mg/kg): 644.33 ± 409.04 kg·ng/mL/mg
MRT(0–t) ([3]; i.t. 6 mg/kg): 3.41 ± 1.08 h
MRT(0–∞) ([3]; i.t. 6 mg/kg): 5.70 ± 1.84 h
T1/2 ([3]; i.t. 6 mg/kg): 17.73 ± 2.85 h
Tmax ([3]; i.t. 6 mg/kg): 0.29 ± 0.39 h
AUC(0–t) ([3]; i.v. 3 mg/kg): 3.76502 ± 0.24743 µg·h/mL
AUC(0–t)/D ([3]; i.v. 3 mg/kg): 1255.00 ± 82.48 kg·ng·h/mL/mg
AUC(0–∞) ([3]; i.v. 3 mg/kg): 3.77397 ± 0.24549 µg·h/mL
Cl ([3]; i.v. 3 mg/kg): 0.79779 ± 0.05318 L/h/kg
Cmax or C0 ([3]; i.v. 3 mg/kg): 12,705.55 ± 1264.79 ng/mL
MRT(0–t) ([3]; i.v. 3 mg/kg): 0.59 ± 0.06 h
MRT(0–∞) ([3]; i.v. 3 mg/kg): 0.62 ± 0.06 h
T1/2 ([3]; i.v. 3 mg/kg): 2.11 ± 1.25 h
Vss ([3]; i.v. 3 mg/kg): 0.49811 ± 0.0581 L/kg
Vz ([3]; i.v. 3 mg/kg): 2.46265 ± 1.56916 L/kg
AUC(0–t) ([3]; i.v. 6 mg/kg): 6.04804 ± 0.63588 µg·h/mL
AUC(0–t)/D ([3]; i.v. 6 mg/kg): 1008.01 ± 105.98 kg·ng·h/mL/mg
AUC(0–∞) ([3]; i.v. 6 mg/kg): 6.06092 ± 0.63785 µg·h/mL
Cl ([3]; i.v. 6 mg/kg): 0.99926 ± 0.10691 L/h/kg
Cmax or C0 ([3]; i.v. 6 mg/kg): 22,731.79 ± 5543.47 ng/mL
MRT(0–t) ([3]; i.v. 6 mg/kg): 0.47 ± 0.06 h
MRT(0–∞) ([3]; i.v. 6 mg/kg): 0.51 ± 0.07 h
T1/2 ([3]; i.v. 6 mg/kg): 3.07 ± 0.61 h
Vss ([3]; i.v. 6 mg/kg): 0.47267 ± 0.06358 L/kg
Vz ([3]; i.v. 6 mg/kg): 4.43299 ± 1.0131 L/kg
increase of mean residence time (MRT), inhaled vs intravenous ([3]; rat, equivalent doses): nearly tenfold
time of peak plasma concentration ([3]; rat, following inhalation): approximately 30 min
bioavailability ([3]; rat, inhalation vs intravenous): exceeding 100%
dose linearity of AUC and Cmax ([3]; rat, intratracheal, dose range 0.3 mg/kg to 6 mg/kg): linear pharmacokinetics
ER [4]: 0.75
Papp A-B ([4]; Mean ± SD, n = 3): 1.19 ± 0.16 ×10−6 cm/s
Papp B-A ([4]; Mean ± SD, n = 3): 0.9 ± 0.17 ×10−6 cm/s
